# Values quoted from earlier work, collected in US6747011B1, “Antitumor drugs and methods” (A.P. Group, Inc., priority 2003, dated 2004).
# Conditions: alkaline and physiological conditions
smiles,measurement,value
COC[C@@H](C[C@H]1O[C@@](O)([C@H](O)[C@@H]2C[C@H](OC)[C@@H](O)CC/C=C(C)/C=C/[C@@H](O[C@@H]3O[C@@H](C)[C@H](OC)[C@@H](O)[C@@H]3O)[C@H](C)/C=C(C)/C=C(C)/C=C(\C)C(=O)O2)[C@H](C)[C@@H](O)[C@H]1C)OC1C[C@](C)(O)[C@@H](O[C@H]2C[C@@H](OC)[C@H](O)[C@@H](C)O2)[C@H](C)O1 (stereo partly shown) [Apoptolidin],"stability, isomerization to isoapoptolidin",unstable under alkaline and physiological conditions and readily isomerizes to isoapoptolidin
